Positions count from the first letter of the chain named. Read-outs that look alike come from different tables or passages of the source. Square brackets hold non-standard residues; d marks the D form. Peptide text beside a SMILES is read from it. * marks the point of attachment. Dolaproine = CO[C@@H]([C@@H]1CCCN1)[C@@H](C)C(=O)O; Dil = CC[C@H](C)[C@H](NC)[C@@H](CC(=O)O)OC; X1 = C[C@@H](N*)[C@@H](O)c1ccccc1; NMeV = CN[C@H](C(=O)O)C(C)C
Columns and labels:
MES-SA cells = assay: Free drug cell killing on parental MES-SA cells; type: cell-based; settings: MEA-SA (parental) cells, No GF120918
Source text: (§1) To evaluate if free drug (I) is specifically a substrate of P-glycoprotein (PgP), which is responsible for cisplatin-resistance in some of the ovarian cancer cell lines (Stordal et al. 2012. PLoS One 7(7)), the free drug cell killing activities were investigated on PgP over-expressing MES-SA/MX2 cell line and the parental MES-SA cells. The cell killing activity of free drug (I), free drug (II) and a control free drug (MMAE, designated “III”) on the PgP-overexpressing MES-SA/MX2 cells were reduced by different levels compared to their activity on parental MES-SA cells. The MES-SA/MX2 cells were also treated with PgP inhibitor GF120918 (5 μM) to further investigate if the observed cell killing reduction is contributed by the presence of PgP on the cell surface.

A549 cells = assay: In vitro cell killing (ADCs, free drugs), FolRα-negative A549 cells; type: cell-based; settings: for Span: A549 cells, Table 26, NK = No Killing; for EC50: Homo sapiens, A549
Source text: Cytotoxic activities of the two ADC molecules were compared in the presence of excess un-conjugated “naked” antibody as competitior, on cells that were positive FolRα expression (Igrov1 and OVCAR3) and on cells that were negative for FolRα expression (A549).

Igrov1 cells = assay: In vitro cell killing (ADCs, free drugs), Igrov1 cells; type: cell-based; settings: for EC50: Homo sapiens, IGROV-1; for Span: Igrov1 cells, Table 26
Procedure: The candidate antibody-drug conjugates were tested in cell killing on FolRα-expressing cells, including KB, Igrov1, HeLa and JEG3.

P-glycoprotein (PgP) = assay: Free drug cell killing on PgP over-expressing MES-SA/MX2 cells with or without PgP inhibitor GF120918; type: cell-based; settings: human, MES-SA/MX2 cells (PgP over-expressing)
Source text: as §1

[1] = test system: MES-SA/MX2 cells (PgP over-expressing); assay: as above; type: cell-based; settings: for change in cell killing EC50 in the presence and absence of PgP inhibitor GF120918: GF120918 5 μM
Source text: as §1

[2] = Pharmacokinetics of free drugs in Sprague-Dawley rats; type: in vivo, rat; settings: for AUC(0-inf) / C0 / Cmax / clearance / AUC(0-t) / half-life / Vd: rat, blood, female Sprague-Dawley rats; for AUC(0-t): read-out: AUC0-last ± SE; for half-life: read-out: Terminal t1/2 (converted); for Vd: read-out: VSS
Procedure: (§2) Blood samples were collected at […], 1, 2, 8, 24, 32, 48, and 72 hour post-dose. Levels of free drug (I) and (II) were measured by LC-MS/MS and non-compartmental pharmacokinetic analysis was conducted using Phoenix WinNonlin Version 6.4 (Pharsight Corporation). The PK of free drug (I) could not be estimated due to the fact that concentrations of (I) increased from 2 to 8 hours and were undetectable thereafter.

cell line tested = assay: Free drug in vitro cytotoxicity, various cell lines; type: cell-based; settings: for cytotoxic activity of released free drugs: in words
[3] = Body weight of rats given free drugs; type: in vivo, rat; settings: free drug (I) 0.4 and 1 mg/kg; free drug (II) 0.4 mg/kg; IV bolus
Procedure: as §2, with “To assess the pharmacokinetic profile of free drug (I), female Sprague-Dawley rats (mean body weight 250 g) were given either a 0.4 mg/kg or 1 mg/kg dose by IV bolus administration (N=three animal per dose level) via an indwelling jugular vein catheter. Blood” for “Blood”

MC38-hFolRα tumors = assay: MC38-hFOLR1 tumor model, combination with Avelumab; type: in vivo; settings: ADC Molecule 4 10 or 15 mg/kg once IV; Avelumab q3dx3 intraperitoneally
human FOLR1-HIS = molecular target: T1, human FOLR1-HIS (Homo sapiens, UniProt P15328); assay: Biacore kinetics (surface plasmon resonance); type: binding; settings: humanized 6D1 (2060) antibodies, Table 9
T1 construct: HIS
T1 sequence (P15328 25-234): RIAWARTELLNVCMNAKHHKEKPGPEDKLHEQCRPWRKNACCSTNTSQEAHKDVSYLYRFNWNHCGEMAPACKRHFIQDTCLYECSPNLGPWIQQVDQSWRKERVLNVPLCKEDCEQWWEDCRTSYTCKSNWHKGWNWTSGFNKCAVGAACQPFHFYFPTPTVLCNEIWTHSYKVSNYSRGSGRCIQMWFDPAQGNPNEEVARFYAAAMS
Procedure: Anti-Fc polyclonal antibodies were immobilized onto a CM5 chip (GE Life Sciences) using amine coupling chemistry (from Amine Coupling Kit, GE Life Sciences). The immobilization steps were carried out at a flow rate of 25 μL/min in 1×HBS-EP+ buffer (GE Life Sciences; 10× Stock diluted before use). The sensor surfaces were activated for 7 min with a mixture of N-hydroxysuccinimide (NHS, 0.05 M) and 1-ethyl-3-(3-dimethylaminopropyl)-carbodiimide (EDC, 0.2 M). The anti-Fc polyclonal antibodies were injected over all 4 flow cells at a concentration of […]/mL in 10 mM sodium acetate, pH 4.5, for 7 min. Ethanolamine (1 M, pH 8.5) was injected for 7 min to block any remaining activated groups. An average of 12,000 response units (RU) of capture antibody was immobilized on each flow cell.
Off-rate and kinetic binding experiments were performed at 25° C. using 1×HBS-EP+ buffer. Test and control antibodies were injected over the anti-Fc surface at concentrations of 5-10 μg/mL for 12 seconds at a flow rate of 10 μL/min on flow cells 2, 3 and 4, followed by a buffer wash for 30 seconds at the same flow rate. Kinetic characterization of antibody samples was carried out with a single concentration of antigen (for off-rate ranking) or a 1:2 dilution series of antigen (for kinetic characterization) and 1 injection of 0 nM antigen. […] Between each ligand capture and analyte binding cycle, regeneration was carried out using 2 injections of 10 mM glycine pH 2.0 for 30 seconds at 30 μL/min, followed by a 30 second buffer wash step.
The data were fit with the Biacore T200 Evaluation software, using a 1:1 Langmuir binding model. KD (affinity, nM) was determined as a ratio of the kinetic rate constants calculated from the fits of the association and dissociation phases.

[4] = test system: FOLR1-positive Igrov1 cells; assay: Secondary antibody cell killing assay, Igrov1 cells; type: cell-based; settings: Table 9; for EC50: read-out: Igrov 2° Antibody Cell Killing, Nb-SC239 EC50
Source text: FOLR1-positive KB cells were obtained from ATCC, and FOLR1-positive Igrov1 cells were obtained from NIH. The cells were maintained in Ham's F-12: high glucose DMEM (50:50) (Corning, Cellgro-Mediatech) supplemented with 10% heat-inactivated fetal bovine serum (Corning, Cellgro-Mediatech, Manassas, Va.), 1% Penicillin/Streptomycin (Corning, Cellgro-Mediatech, Manassas, Va.) and 2 mmol/L-glutamax (Thermo Fisher Scientific, Waltham, Mass.). Adherent cells were washed twice with calcium and magnesium-free Hanks Balanced Salt Solution (HBSS), harvested with HYQ® TASE™ (Hyclone; Thermo Fisher Scientific, Waltham, Mass.) and counted by the Vi-CELL Cell Viability Analyzers (Beckman Coulter, Indianapolis, Ind.). A total of 625 cells were seeded in each well of a 384-well flat bottom white polystyrene plate. Lead antibodies were formulated at 4-fold starting concentration in the cell culture medium and filtered through MultiScreenHTS 96-Well Filter Plates (Millipore; Billerica, Mass.). […] Assay plates were cultured at 37° C. in a CO2 incubator for 120 hrs before assay. For cell viability measurement, 30 μL of Cell Titer-Glo® reagent (Promega Corp. Madison, Wis.) was added into each well, and plates were processed as per product instructions. Relative luminescence was measured on an ENVISION® plate reader (Perkin-Elmer; Waltham, Mass.). Relative luminescence readings were converted to percent viability using untreated cells as controls. Data was fitted with non-linear regression analysis, using a log(inhibitor) vs. response-variable slope, 4 parameter fit with GraphPad Prism (GraphPad v 5.0, Software; San Diego, Calif.). Data was expressed as relative cell viability (ATP content) % vs. dose of antibody.

[5] = with GF120918 (5 μM), MEA-SA/MX2 cells, with PgP inhibitor GF120918 (5 μM)
[6] = MEA-SA/MX2 cells (PgP over-expressing), No GF120918
[7] = MEA-SA/MX2 cells, with PgP inhibitor GF120918 (5 μM)

`COc1cc2cc(c1Cl)N(C)C(=O)C[C@H](OC(=O)[C@H](C)N(C)C(=O)CCC(C)(C)S)[C@]1(C)O[C@H]1[C@H](C)[C@@H]1C[C@@](O)(NC(=O)O1)[C@H](OC)/C=C/C=C(/C)C2` [free drug (II)] showed an EC50 (MES-SA cells; Homo sapiens, MES-SA) of 1.9 nM, a Span (MES-SA cells) of 100% and a Span (A549 cells) of 81%. The EC50 (A549 cells) was 7.7 nM, the EC50 (Igrov1 cells) was 4.9 nM and the Span (Igrov1 cells) was 90%. The EC50 (P-glycoprotein (PgP); [5]) was 1.7 nM, the EC50 (P-glycoprotein (PgP); [6]) was 28 nM and the “change in cell killing EC50 in the presence and absence of PgP inhibitor GF120918” value (“change … of PgP inhibitor GF120918” below) [1] was 17 fold. The Span [1, 6] was 100%, the Span [1, 7] was 98% and the AUC(0-inf) ([2]; IV bolus, dose level 0.1 mg/kg) was 129 ng·h/mL. The C0 ([2]; IV bolus, dose level 0.1 mg/kg) was 10.7 ng/mL, the Cmax ([2]; IV bolus, dose level 0.1 mg/kg) was 9.31 ± 2.19 ng/mL and the clearance ([2]; IV bolus, dose level 0.1 mg/kg) was 12.9 mL/min/kg. The AUC(0-t) ([2]; IV bolus, dose level 0.1 mg/kg) was 96.9 ± 11 ng·h/mL, the half-life ([2]; IV bolus, dose level 0.1 mg/kg) was 22.4 h and the Vd ([2]; IV bolus, dose level 0.1 mg/kg) was 15.8 L/kg. It also gave an AUC(0-inf) ([2]; IV bolus, dose level 0.4 mg/kg) of 242 ng·h/mL, a C0 ([2]; IV bolus, dose level 0.4 mg/kg) of 62.5 ng/mL and a Cmax ([2]; IV bolus, dose level 0.4 mg/kg) of 53.3 ± 19 ng/mL. The clearance ([2]; IV bolus, dose level 0.4 mg/kg) was 27.7 mL/min/kg, the AUC(0-t) ([2]; IV bolus, dose level 0.4 mg/kg) was 211 ± 70 ng·h/mL and the half-life ([2]; IV bolus, dose level 0.4 mg/kg) was 44.3 h. The Vd ([2]; IV bolus, dose level 0.4 mg/kg) was 44.1 L/kg, the “cytotoxic activity of released free drugs” value (cell line tested) was “comparable cytotoxic activity” and the “body weight of the animals” value [3] was “progressive body weight loss”.

In the case of `CC[C@H](C)[C@@H]([C@@H](CC(=O)N1CCC[C@H]1[C@H](OC)[C@@H](C)C(=O)N[C@H](C)[C@@H](O)c1ccccc1)OC)N(C)C(=O)[C@@H](NC(=O)[C@@H](NC)C(C)C)C(C)C` [free drug (III), MMAE] (H-[NMeV]V[Dil][Dolaproine]-X1), the EC50 (MES-SA cells) is reported as 0.75 nM, the Span (MES-SA cells) is reported as 100% and the “change … of PgP inhibitor GF120918” value [1] is reported as 111 fold. The EC50 [1, 6] was 111 nM, the Span [1, 6] was 100% and the EC50 [1, 7] was 1 nM. For the same molecule, the Span [1, 7] was 99%.

With Avelumab the initial tumor response (MC38-hFolRα tumors) was “tumor stasis until approximately day 7”.

With `CN[C@H](C(=O)N[C@H](C(=O)N(C)[C@H](/C=C(\C)C(=O)O)C(C)C)C(C)(C)C)C(C)(C)c1cccc(N)c1` [free drug (I)] the EC50 (MES-SA cells; Homo sapiens, MES-SA) was 6 nM, the Span (MES-SA cells) was 100% and the Span (A549 cells) was 81%. The EC50 (A549 cells) was 11 nM, the EC50 (Igrov1 cells) was 2.4 nM and the Span (Igrov1 cells) was 92%. The EC50 (P-glycoprotein (PgP); [5]) was 6.4 nM, the EC50 (P-glycoprotein (PgP); [6]) was 50 nM and the “change … of PgP inhibitor GF120918” value [1] was 8 fold. The Span [1, 6] was 100%, the Span [1, 7] was 99% and the “plasma level of free drug after dosing” value ([2]; 0.4 or 1 mg/kg IV bolus, data not shown) was “undetectable at 24 hours post dose”. For the same molecule, the “clearance relative to the other free drug” value ([2]; IV bolus) was “more rapid than that of free drug (II)”, the “PK of free drug (I) in rat vs. free drug (II)” value ([2]; Table 28) was “Free drug (I) has faster clearance” and the C0 ([2]; IV bolus, dose level 0.1 mg/kg) was 6.81 ng/mL. For the same molecule, the Cmax ([2]; IV bolus, dose level 0.1 mg/kg) was 5.82 ± 0.69 ng/mL, the AUC(0-t) ([2]; IV bolus, dose level 0.1 mg/kg) was 11 ± 2.1 ng·h/mL and the C0 ([2]; IV bolus, dose level 0.4 mg/kg) was 15.5 ng/mL. The Cmax ([2]; IV bolus, dose level 0.4 mg/kg) was 12.8 ± 2.1 ng/mL, the AUC(0-t) ([2]; IV bolus, dose level 0.4 mg/kg) was 23.9 ± 2.6 ng·h/mL and the EC50 (cell line tested; depending on the cell line tested, read-out: cytotoxic activity in vitro EC50) was 0.5 to 20 nM. For the same molecule, the “cytotoxic activity of released free drugs” value (cell line tested) was “comparable cytotoxic activity” and the “body weight of the animals” value [3] was “did not have an effect on the body weight”.

B1: SRP2060-E10: affinity-matured humanized 6D1; VH SEQ ID NO 363; VL H6D1-LC4 SEQ ID NO 368 (antibody, V domains shown)
VH: EVQLLESGGGLVQPGGSLRLSCAFSGFSLSTFGMGVGWVRQAPGKGLEWVSHIWWDDDKYYHPALKGRFTISKDNSKNTVYLQMNSLRAEDTAVYYCGRNHFPHYYGSSHWYFNVWGQGTTVTVSS
VL: EIVMTQSPATLSLSPGERATLSCKASQDINSYLSWYQQKPGQAPRLLIYRANRLVDGIPARFSGSGSGTDYTLTISSLEPEDFAVYYCLQYDEFPYTFGGGTKVEIK
modifications: Synthetic SRP2060-E10, VH; Synthetic H6D1-LC4, VL
In the case of B1, the Biacore kinetics ka (human FOLR1-HIS) is reported as 582000 M⁻¹ s⁻¹, the Biacore kinetics kd (human FOLR1-HIS) is reported as 0.0012 s⁻¹ and the “Igrov 2° Antibody Cell Killing, Nb-SC239 span” value (“Igrov 2° Antibody Cell Killing” below) [4] is reported as 68%. The EC50 [4] was 0.061 nM.

B2: SRP2060-E05: affinity-matured humanized 6D1; VH SEQ ID NO 364; VL H6D1-LC4 SEQ ID NO 368 (antibody, V domains shown)
VH: B1 VH with I71V
VL: B1 VL
modifications: Synthetic SRP2060-E05, VH; Synthetic H6D1-LC4, VL
For B2, the Biacore kinetics ka (human FOLR1-HIS) was 541000 M⁻¹ s⁻¹, the Biacore kinetics kd (human FOLR1-HIS) was 0.00158 s⁻¹ and the “Igrov 2° Antibody Cell Killing” value [4] was 71%. It also gave an EC50 [4] of 0.22 nM.

B3: SRP2060-B01 (antibody, V domains shown)
VH: B1 VH with F24L, P43T, Y81H
VL: DIQMTQSPSTLSASVGDRVTITCKASQDINSYLSWYQQKPGKAPKLLIYRANRLVDGVPSRFSGSGSGTEFTLTISSLQPDDFATYYCLQYDEFPYTFGGGTKVEIK
For B3, the Biacore kinetics ka (human FOLR1-HIS) was 561000 M⁻¹ s⁻¹, the Biacore kinetics kd (human FOLR1-HIS) was 0.00147 s⁻¹ and the “Igrov 2° Antibody Cell Killing” value [4] was 76%. For the same molecule, the EC50 [4] was 0.045 nM.

B4: SRP2060-A06 (antibody, V domains shown)
VH: B1 VH with S51G, H62Y, N114D
VL: B3 VL
For B4, the Biacore kinetics ka (human FOLR1-HIS) was 547000 M⁻¹ s⁻¹, the Biacore kinetics kd (human FOLR1-HIS) was 0.00729 s⁻¹ and the “Igrov 2° Antibody Cell Killing” value [4] was 66%. It also gave an EC50 [4] of 0.013 nM.

Reference: patent US10596270B2, “Anti-folate receptor antibody conjugates, compositions comprising anti-folate receptor antibody conjugates, and methods of making and using anti-folate receptor antibody conjugates” (Sutro Biopharma, Inc., priority 2017, dated 2020)
